This data set has as its target T1, human ether-a-go-go related gene (hERG) channel (Homo sapiens, UniProt Q12809).
T1 construct: expressed in transfected cells; host or cells: HEK293
The experiment in a line: hERG test (whole-cell patch-clamp, IKr in HEK293 cells). It counts as cell-based. As to conditions: inhibition of maximum tail current (IKr), HEK293 cell expressing hERG, compound 1 μM, 10 minutes; 1 µM. In outline: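 hERG-expressing HEK293 cells, automated whole-cell patch clamp: hold −80 mV, +50 mV for 2 s, then −50 mV for 2 s to record IKr tail current. Compound in extracellular solution (pH 7.4) for 10 min at room temperature; inhibition of maximum tail current calculated versus pre-application and compared with 0.1% DMSO vehicle.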
For orientation: hERG is a cardiac potassium channel; its block is linked to QT prolongation.

Each structure is given as a SMILES string.

T1 sequence (Q12809 whole entry): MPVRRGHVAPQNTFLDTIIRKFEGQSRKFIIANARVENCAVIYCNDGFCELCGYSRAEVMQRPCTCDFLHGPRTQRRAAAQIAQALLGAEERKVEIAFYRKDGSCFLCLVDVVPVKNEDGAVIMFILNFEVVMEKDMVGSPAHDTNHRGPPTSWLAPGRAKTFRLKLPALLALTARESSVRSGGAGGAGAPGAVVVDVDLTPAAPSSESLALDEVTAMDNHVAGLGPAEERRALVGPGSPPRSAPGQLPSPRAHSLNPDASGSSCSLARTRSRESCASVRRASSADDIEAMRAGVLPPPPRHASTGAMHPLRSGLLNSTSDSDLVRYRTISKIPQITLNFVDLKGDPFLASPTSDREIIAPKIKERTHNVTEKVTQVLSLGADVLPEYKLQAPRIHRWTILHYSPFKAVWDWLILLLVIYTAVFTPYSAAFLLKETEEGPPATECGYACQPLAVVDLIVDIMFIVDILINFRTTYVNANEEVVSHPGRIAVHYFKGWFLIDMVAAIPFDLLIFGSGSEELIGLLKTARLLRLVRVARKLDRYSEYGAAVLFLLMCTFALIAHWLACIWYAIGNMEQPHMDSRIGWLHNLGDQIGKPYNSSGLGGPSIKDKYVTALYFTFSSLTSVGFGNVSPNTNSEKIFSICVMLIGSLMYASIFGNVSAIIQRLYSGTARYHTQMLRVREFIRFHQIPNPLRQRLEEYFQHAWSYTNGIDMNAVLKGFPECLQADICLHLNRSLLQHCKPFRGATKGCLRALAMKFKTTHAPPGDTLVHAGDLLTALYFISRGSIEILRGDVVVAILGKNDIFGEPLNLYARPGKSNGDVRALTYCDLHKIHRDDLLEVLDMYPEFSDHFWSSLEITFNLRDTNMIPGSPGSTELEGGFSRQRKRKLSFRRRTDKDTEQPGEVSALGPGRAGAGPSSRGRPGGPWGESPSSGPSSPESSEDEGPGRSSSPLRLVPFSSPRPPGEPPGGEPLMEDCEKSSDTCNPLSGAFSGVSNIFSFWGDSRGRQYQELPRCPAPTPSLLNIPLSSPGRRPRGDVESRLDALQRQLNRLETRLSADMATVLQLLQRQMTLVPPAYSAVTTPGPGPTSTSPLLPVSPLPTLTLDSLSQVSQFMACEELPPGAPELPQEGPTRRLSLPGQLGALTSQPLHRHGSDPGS

Consider `COc1cc(N2CCc3nc(NC(=O)Nc4ccccc4C(=O)NC(C)C(O)C(F)(F)F)sc3C2)nc(OC)n1` (stereo not shown) [Compound I-139], for which the “hERG(at 1 μM) % Inhibition” value worked out at 8.5%.

For the origin of these results see US20120071475A1, “UREA DERIVATIVES HAVING PI3K-INHIBITING ACTIVITY” (SHIONOGI & CO., LTD., priority 2009, published 2012).
